The values that follow come from patent US9193728B2, “Fused tetracyclic pyrido [4,3-B] indole and pyrido [3,4-B] indole derivatives and methods of use” (Medivation Technologies, Inc., priority 2010, dated 2015).

Assay [1] concerns the target T1, human recombinant serotonin (5-Hydroxytryptamine) 5-HT7 receptor (Homo sapiens, UniProt P34969).
T1 construct: expressed in transfected cells; host or cells: CHO
Put plainly: Serotonin 5-HT7 radioligand binding ([3H]LSD). As to conditions: compound at 0.1 μM; read-out: Serotonin (0.1 μM) 5-HT7, percentage inhibition of ligand binding. The protocol: To evaluate in radioligand binding assays the activity of compounds of the invention, human recombinant serotonin (5-Hydroxytryptamine) 5-HT7 receptor expressed in Chinese hamster ovary (CHO) cells (Roth, B. et al, J. Pharmacol. Exp. Ther. 268:1403, 1994; Shen, Y. et al, J. Biol. Chem. 268:18200, 1993) in a modified Tris-HCl buffer (50 mM Tris-HCl, pH 7.4, 10 mM MgCl2, 0.5 mM EDTA) was used. Compounds of invention were incubated with 5.5 nM [^3H]Lysergic acid diethylamide (LSD) for 120 min. at 25° C. Non-specific binding was estimated in the presence of 10 μM Serotonin (5-HT). Receptor proteins were filtered and washed, the filters were then counted to determine [^3H]LSD specifically bound. Compounds were screened at 1 μM or lower, using 1% DMSO as vehicle. Biochemical assay results are presented as the percent inhibition of specific binding in Table 4.

Assay [2] deals with T2, human recombinant serotonin (5-Hydroxytryptamine) 5-HT2A receptor (Homo sapiens, UniProt P28223).
T2 construct: expressed in transfected cells; host or cells: CHO-K1
Put plainly: Serotonin 5-HT2A radioligand binding ([3H]Ketanserin). The conditions noted are these: compound at 0.1 μM; read-out: Serotonin (0.1 μM) 5-HT2A, percentage inhibition of ligand binding. The protocol: To evaluate in radioligand binding assays the activity of compounds of the invention, human recombinant serotonin (5-Hydroxytryptamine) 5-HT2A receptor expressed in Chinese hamster ovary (CHO)-K1 cells (Bonhaus, D. et al, Br. J. Pharmacol. 115:622, 1995; Saucier, C. et al, J. Neurochem. 68:1998, 1997) in a 50 mM Tris-HCl buffer, pH 7.4, was used. Compounds of the invention were incubated with 0.5 nM [^3H]Ketanserin for 60 min. at 25° C. Non-specific binding was estimated in the presence of 1 μM Mianserin. Receptor proteins were filtered and washed, the filters were then counted to determine [^3H]Ketanserin specifically bound. Compounds were screened at 1 μM or lower, using 1% DMSO as vehicle. Biochemical assay results are presented as the percent inhibition of specific binding in Table 4.

In assay [3] the target is T3, human recombinant serotonin (5-Hydroxytryptamine) 5-HT6 receptor (Homo sapiens, UniProt P50406).
T3 construct: expressed in transfected cells; host or cells: HeLa
Briefly: Serotonin 5-HT6 radioligand binding ([3H]LSD). The conditions noted are these: compound at 0.1 μM; read-out: Serotonin (0.1 μM) 5-HT6, percentage inhibition of ligand binding. As to the method: To evaluate in radioligand binding assays the activity of compounds of the invention, human recombinant serotonin (5-Hydroxytryptamine) 5-HT6 receptor expressed in human HeLa cells (Monsma, F. Jr. et al, Mol. Pharmacol. 43:320, 1993) in a modified Tris-HCl buffer (50 mM Tris-HCl, pH 7.4, 150 mM NaCl, 2 mM Ascorbic Acid, 0.001% BSA) was used. Compounds of the invention were incubated with 1.5 nM [3H]Lysergic acid diethylamide (LSD) for 120 min. at 37° C. Non-specific binding was estimated in the presence of 5 μM Serotonin (5-HT). Receptor proteins were filtered and washed, the filters were then counted to determine [3H]LSD specifically bound. Compounds were screened at 1 μM or lower, using 1% DMSO as vehicle. Biochemical assay results are presented as the percent inhibition of specific binding in Table 4.

Assay [4] has as its target T4, human recombinant serotonin (5-Hydroxytryptamine) 5-HT2C receptor (Homo sapiens, UniProt P28335).
T4 construct: expressed in transfected cells; host or cells: CHO-K1
T4 sequence (P28335 33-458): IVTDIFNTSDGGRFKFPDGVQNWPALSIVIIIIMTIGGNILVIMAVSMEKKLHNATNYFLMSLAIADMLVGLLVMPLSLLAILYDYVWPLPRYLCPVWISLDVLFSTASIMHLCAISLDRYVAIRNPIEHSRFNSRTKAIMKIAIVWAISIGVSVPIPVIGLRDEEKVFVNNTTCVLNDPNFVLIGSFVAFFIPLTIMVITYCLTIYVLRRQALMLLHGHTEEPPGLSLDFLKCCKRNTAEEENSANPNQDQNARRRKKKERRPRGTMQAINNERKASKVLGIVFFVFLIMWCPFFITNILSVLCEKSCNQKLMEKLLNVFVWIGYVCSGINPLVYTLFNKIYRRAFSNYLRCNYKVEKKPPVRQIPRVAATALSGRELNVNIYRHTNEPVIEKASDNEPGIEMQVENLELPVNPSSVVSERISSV
Briefly: Serotonin 5-HT2C radioligand binding ([3H]Mesulergine). The conditions noted are these: compound at 0.1 μM; read-out: Serotonin (0.1 μM) 5-HT2C, percentage inhibition of ligand binding. The protocol:
To evaluate in radioligand binding assays the activity of compounds of the invention, human recombinant serotonin (5-Hydroxytryptamine) 5-HT2C receptor expressed in Chinese hamster ovary (CHO)-K1 cells (Wolf, W. et al, J. Neurochem. 69:1449, 1997) in a modified Tris-HCl buffer (50 mM Tris-HCl, pH 7.4, 0.1% Ascorbic Acid, 10 μM Pargyline) was used. Compounds of the invention were incubated with 1 nM [^3H]Mesulergine for 60 min. at 25° C. Non-specific binding was estimated in the presence of 1 μM Mianserin. Receptor proteins were filtered and washed, the filters were then counted to determine [^3H]Mesulergine specifically bound. Compounds were screened at 1 μM or lower, using 1% DMSO as vehicle. Biochemical assay results are presented as the percent inhibition of specific binding in Table 4.

For assay [5], the target named is T5, human recombinant histamine H1 receptor (Homo sapiens, UniProt P35367).
T5 construct: expressed in transfected cells; host or cells: CHO-K1
Put plainly: Histamine H1 radioligand binding ([3H]Pyrilamine). The conditions noted are these: compound at 1 μM; 1.2 nM [3H]Pyrilamine; read-out: Histamine Binding (1 μM) H1, percentage inhibition. The protocol: To evaluate in radioligand binding assays the activity of compounds of the invention, human recombinant histamine H1 receptor expressed in Chinese hamster ovary (CHO) K1 cells (De Backer, M. et al, Biochem. Biophys. Res. Comm. 197(3):1601, 1993) in a modified Tris-HCl buffer (50 mM Tris-HCl, pH 7.4, 2 mM MgCl2, 100 mM NaCl, 250 mM Sucrose) was used. Compounds of the invention were incubated with 1.2 nM [^3H]Pyrilamine for 180 min. at 25° C. Non-specific binding was estimated in the presence of 1 μM Pyrilamine. Receptor proteins were filtered and washed, the filters were then counted to determine [^3H]Pyrilamine specifically bound. Compounds were screened at 1 μM or lower, using 1% DMSO as vehicle. Biochemical assay results are presented as the percent inhibition of specific binding in Table 2.

For assay [6], the target named is T6, human recombinant dopamine D2L receptor (Homo sapiens, UniProt P14416).
T6 construct: expressed in transfected cells; host or cells: CHO
Briefly: Dopamine D2L radioligand binding ([3H]Spiperone). The conditions noted are these: compound at 1 μM; read-out: Dopamine (1 μM) D2L, percentage inhibition of ligand binding. The protocol:
To evaluate in radioligand binding assays the activity of compounds of the invention, human recombinant dopamine D2L receptor expressed in Chinese hamster ovary (CHO) cells (Grandy, D. et al, Proc. Natl. Acad. Sci. USA. 86:9762, 1989; Hayes, G. et al, Mol. Endocrinol. 6:920, 1992) in a modified Tris-HCl buffer (50 mM Tris-HCl, pH 7.4, 1.4 mM Ascorbic Acid, 0.001% BSA, 150 mM NaCl) was used. Compounds of the invention were incubated with 0.16 nM [^3H]Spiperone for 120 min. at 25° C. Non-specific binding was estimated in the presence of 10 μM Haloperidol. Receptor proteins were filtered and washed, the filters were then counted to determine [^3H]Spiperone specifically bound. Compounds were screened at 1 μM or lower, using 1% DMSO as vehicle. Biochemical assay results are presented as the percent inhibition of specific binding in Table 3.

T5 sequence (P35367 whole entry): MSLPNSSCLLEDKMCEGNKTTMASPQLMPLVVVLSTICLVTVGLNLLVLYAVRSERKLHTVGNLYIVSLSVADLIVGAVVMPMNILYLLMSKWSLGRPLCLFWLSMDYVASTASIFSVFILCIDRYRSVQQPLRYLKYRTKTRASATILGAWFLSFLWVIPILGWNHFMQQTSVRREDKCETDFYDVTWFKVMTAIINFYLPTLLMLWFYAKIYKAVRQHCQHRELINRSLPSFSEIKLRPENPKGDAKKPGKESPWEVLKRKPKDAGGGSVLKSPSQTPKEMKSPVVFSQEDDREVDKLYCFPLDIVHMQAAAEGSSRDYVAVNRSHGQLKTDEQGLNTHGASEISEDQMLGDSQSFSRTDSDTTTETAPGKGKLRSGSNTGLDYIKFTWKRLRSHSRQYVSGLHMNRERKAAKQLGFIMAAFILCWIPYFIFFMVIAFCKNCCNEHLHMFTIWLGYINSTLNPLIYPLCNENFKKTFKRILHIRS
T1 sequence (P34969 whole entry): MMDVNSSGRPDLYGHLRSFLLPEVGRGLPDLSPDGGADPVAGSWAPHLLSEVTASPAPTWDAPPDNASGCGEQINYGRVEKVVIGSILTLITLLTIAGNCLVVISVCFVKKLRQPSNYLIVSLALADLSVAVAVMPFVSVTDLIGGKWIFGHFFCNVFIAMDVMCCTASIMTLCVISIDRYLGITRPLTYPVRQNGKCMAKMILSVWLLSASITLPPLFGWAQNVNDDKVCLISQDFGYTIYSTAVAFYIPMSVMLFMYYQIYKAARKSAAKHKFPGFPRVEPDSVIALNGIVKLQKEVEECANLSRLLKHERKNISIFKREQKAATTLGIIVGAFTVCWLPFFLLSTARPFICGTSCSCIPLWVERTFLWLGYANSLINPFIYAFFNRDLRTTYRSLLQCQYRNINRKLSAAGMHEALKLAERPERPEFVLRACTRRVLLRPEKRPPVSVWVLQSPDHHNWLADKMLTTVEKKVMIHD
T2 sequence (P28223 whole entry): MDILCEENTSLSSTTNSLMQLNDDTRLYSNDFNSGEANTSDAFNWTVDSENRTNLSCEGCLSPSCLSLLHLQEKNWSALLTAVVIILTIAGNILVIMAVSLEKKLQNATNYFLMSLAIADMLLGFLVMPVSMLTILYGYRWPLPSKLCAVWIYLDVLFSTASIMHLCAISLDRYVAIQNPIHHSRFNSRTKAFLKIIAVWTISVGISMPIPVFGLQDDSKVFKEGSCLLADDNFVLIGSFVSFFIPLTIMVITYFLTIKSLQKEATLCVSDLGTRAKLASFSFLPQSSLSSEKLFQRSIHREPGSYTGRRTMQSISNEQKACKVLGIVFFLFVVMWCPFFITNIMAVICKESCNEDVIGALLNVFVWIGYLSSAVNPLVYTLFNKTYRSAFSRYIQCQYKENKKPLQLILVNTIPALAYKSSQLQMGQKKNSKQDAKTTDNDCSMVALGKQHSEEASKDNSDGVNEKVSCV
T3 sequence (P50406 whole entry): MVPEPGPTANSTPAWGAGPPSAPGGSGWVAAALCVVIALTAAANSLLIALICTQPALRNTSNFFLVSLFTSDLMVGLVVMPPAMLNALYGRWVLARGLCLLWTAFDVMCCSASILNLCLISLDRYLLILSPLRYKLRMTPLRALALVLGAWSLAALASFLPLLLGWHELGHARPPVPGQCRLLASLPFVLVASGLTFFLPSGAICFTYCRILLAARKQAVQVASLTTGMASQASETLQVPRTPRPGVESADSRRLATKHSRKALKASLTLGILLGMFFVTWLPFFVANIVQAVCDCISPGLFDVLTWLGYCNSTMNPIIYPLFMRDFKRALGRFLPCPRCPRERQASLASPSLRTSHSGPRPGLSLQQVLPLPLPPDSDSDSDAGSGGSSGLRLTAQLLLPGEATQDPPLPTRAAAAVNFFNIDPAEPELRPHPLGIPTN
T6 sequence (P14416 whole entry): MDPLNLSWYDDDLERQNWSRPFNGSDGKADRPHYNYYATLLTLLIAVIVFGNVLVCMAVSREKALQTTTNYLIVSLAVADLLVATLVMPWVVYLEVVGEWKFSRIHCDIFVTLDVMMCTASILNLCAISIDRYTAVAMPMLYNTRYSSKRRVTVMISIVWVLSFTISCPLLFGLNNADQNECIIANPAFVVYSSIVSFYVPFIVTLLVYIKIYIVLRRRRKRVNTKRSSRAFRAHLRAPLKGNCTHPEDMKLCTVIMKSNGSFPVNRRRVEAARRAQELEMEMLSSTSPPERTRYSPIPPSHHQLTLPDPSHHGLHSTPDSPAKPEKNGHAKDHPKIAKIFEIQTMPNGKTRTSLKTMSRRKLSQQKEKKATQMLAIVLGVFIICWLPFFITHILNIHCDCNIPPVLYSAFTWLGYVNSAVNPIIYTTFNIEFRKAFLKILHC

With `Cc1ccc(C2Cn3c4c(c5cccc2c53)CN(C)CC4)cn1` (stereo not drawn) [Compound 210], the inhibition at 0.1 µM stood at 21% in assay [1], 23% in assay [2] and 1% in assay [3].

Regarding `Cc1cc2c3c(c1)c1c(n3CC(c3ccccc3)O2)CCN(C)C1` (stereo not drawn) [Compound 15, 5,8-dimethyl-2-phenyl-1,2,7,8,9,10-hexahydro-[1,4]oxazino[2,3,4-hi]pyrido[4,3-b]indole], the inhibition at 0.1 µM in assay [4] is 4%; in assay [1], 9%; in assay [2] it was 10%; in assay [3], 21%. Also, the inhibition at 1 µM in assay [5] is 96%; in assay [6], 76%.

As for `CN1CCc2c(c3cccc4c3n2CC(c2ccncc2)S4)C1` (stereo not drawn) [Compound 10], the inhibition at 0.1 µM in assay [4] stood at 8%; in assay [1], 12%; in assay [2] it was 23%; in assay [3], 23%. The inhibition at 1 µM in assay [5] is 84%; in assay [6] it was 32%.

`CN1CCc2c(c3cccc4c3n2CC(=O)N4Cc2ccncc2)C1` [Compound 159]: the inhibition at 0.1 µM came to 35% in assay [4], 38% in assay [1], 53% in assay [2] and 4% in assay [3]. Besides, the inhibition at 1 µM worked out at 16% in assay [5] and 6% in assay [6].

As for `CN1CCc2c(c3cccc4c3n2CCC4)C1` [Compound 8], the inhibition at 0.1 µM in assay [4] turned out to be 48%; in assay [1], 14%; in assay [2], 30%; in assay [3], 9%. Further, the inhibition at 1 µM in assay [5] came out at 49%; in assay [6], 15%.

Take `CN1CCc2c(c3cccc4c3n2CC(c2ccc(F)cc2)C4)C1` (stereo not drawn) [Compound 16]: the inhibition at 0.1 µM in assay [4] came to 34%; in assay [1] it was 16%; in assay [2] it was 40%; in assay [3] it was 57%. Also, the inhibition at 1 µM in assay [5] was determined as 78%; in assay [6] it was 91%.

Regarding `Cc1cc2c(-c3ccccc3)cn3c4c(c(c1)c23)CN(C)CC4` [Compound 211], the inhibition at 0.1 µM in assay [1] stood at 78%; in assay [2] it was 50%; in assay [3], 47%.

For the compound `CN1CCc2c(c3cccc4c3n2CCS4)C1` [Compound 11, 8-methyl-1,2,7,8,9,10-hexahydropyrido[4,3-b][1,4]thiazino[2,3,4-hi]indole], the inhibition at 0.1 µM in assay [4] is 57%; in assay [1], -8%; in assay [2] it was 27%; in assay [3] it was 18%. Further, the figures for the inhibition at 1 µM in assay [5] and in assay [6] were 39% and 10%, respectively.

For the compound `CN1CCc2c(c3cccc4c3n2CC(=O)N4)C1` [Compound 5], the inhibition at 0.1 µM in assay [4] is 13%; in assay [1], 4%; in assay [2], -4%; in assay [3] it was 4%. The results for the inhibition at 1 µM in assay [5] and in assay [6] were 5% and 21%, respectively.

In the case of `Cc1cc2c3c(c1)c1c(n3CC2)CCN(CCCC(=O)c2ccc(F)cc2)C1` [Compound 13], the inhibition at 0.1 µM in assay [4] was 93%; in assay [1], 62%; in assay [2], 98%; in assay [3], 31%. Further, the inhibition at 1 µM in assay [5] was 64%; in assay [6], 91%.

With `CN1CCc2c(c3cccc4c3n2CCO4)C1` [Compound 9, 8-methyl-1,2,7,8,9,10-hexahydro-[1,4]oxazino[2,3,4-hi]pyrido[4,3-b]indole], the inhibition at 0.1 µM in assay [4] came to 20%; in assay [1] it was 2%; in assay [2], 11%; in assay [3], 12%. In addition, the inhibition at 1 µM was determined as 31% in assay [5] and 10% in assay [6].

As for `Cc1cc2c3c(c1)c1c(n3CC(c3ccc(F)cc3)=CC2)CCN(C)C1` [Compound 156, (Z)-6-(4-fluorophenyl)-2,11-dimethyl-4,7,9,10,11,12-hexahydroazepino[3,2,1-hi]pyrido[4,3-b]indole], the inhibition at 0.1 µM was 93% in assay [4], 49% in assay [1], 98% in assay [2] and 62% in assay [3]. Moreover, the inhibition at 1 µM in assay [5] came to 101%; in assay [6], 65%.

As to `Cc1cc2c3c(c1)c1c(n3CC(c3ccc(F)cc3)CC2)CCN(C)C1` (stereo not drawn) [Compound 157, 6-(4-fluorophenyl)-2,11-dimethyl-4,5,6,7,9,10,11,12-octahydroazepino[3,2,1-hi]pyrido[4,3-b]indole], the inhibition at 0.1 µM in assay [4] stood at 96%; in assay [1] it was 80%; in assay [2], 90%; in assay [3], 91%. Besides, the inhibition at 1 µM in assay [5] was 95%; in assay [6], 83%.

One may read the inhibition as the change of the read-out against control, counted positive when it falls.
